Results reported in patent US12466807B2, “Salt and crystal form of a FAK inhibitor” (Amplia Therapeutics Limited, priority 2019, dated 2025).

Assay: Hydration studies
Type: physicochemical
Settings: 24 h
Procedure: Hydration studies were carried out as follows: • Approximately 10-20 mg of Formula I free base, L-tartrate Pattern 1, were weighed into 1.5 mL vials. • Water/acetone mixtures were prepared to give water activities of 0.281, 0.637 and 0.888. • The appropriate water/acetone mixture was then added to each vial to form a slurry and the vials capped and shaken at ambient temperature for 24 hours. • After this time, the slurries were transferred to centrifuge tubes containing nylon filters (0.22 μm) and centrifuged for 15 minutes. The isolated solids were analyzed by XRPD.

In the case of `COc1cc(C2CCN(C)CC2)ccc1Nc1ncc(C(F)(F)F)c(CCc2ccccc2CC(N)=O)n1` [L-Tartrate], the “XRPD Result” value (Water Activity 0.281, water/acetone) is reported as “Pattern 1”, the “XRPD Result” value (Water Activity 0.637, water/acetone) is reported as “Pattern 1” and the “XRPD Result” value (Water activity 0.888, water/acetone, listed as L-Tartrate Pattern 1) is reported as “Pattern 2 (hydrate)”. The “XRPD Result” value (Water activity 0.888, water/acetone, listed as L-tartrate Pattern 1) was “L-tartrate Pattern 2”.
